Tested on: Obese Fa/fa Zucker rats
Test: Effect on food intake (food consumption) in obese Zucker rats, five days of oral treatment
Assay type: in vivo, rat
Details: daily for 5 days
Procedure: The synergistic effect of the combination of sibutramine and of a CB1 receptor antagonist on food intake was determined according to the following protocol:
Obese Fa/fa Zucker rats aged 7 weeks and originating from Iffa-Credo, France, were used in this study. The rats are housed in individual cages and weighed every day between 8 and 10 o'clock in the morning. The amount of food is also weighed each morning at the same time. This food (M20, Pietrement, France) is changed every day and the rats have free access thereto for 24 hours. All the rats are treated for a week with the vehicle (miglyol 812N and 0.5% methylcellulose/0.2% polysorbate 80) in two consecutive administrations. The rats are treated from the 8th day with the vehicle, the CB1 receptor antagonist (1-[bis(4-chlorophenyl)methyl]-3-[(3,5-difluorophenyl)-(methylsulfonyl)methylene]azetidine) or sibutramine by the oral route (see table below).
The sibutramine is dissolved in a 0.5% methylcellulose/0.2% polysorbate 80 solution and administered at a dose of 3 mg/kg; the CB1 receptor antagonist is dissolved in miglyol 812N (Hüls, Germany) at a dose of 0.6 mg/kg and the two products are administered under a volume of 1 ml/kg. Each group is composed of 12 to 14 animals. […]
The food consumption of each animal is measured every day. The results are expressed as mean amount of food consumed during the 5 days of treatment.

Row | SMILES | Food consumption during the 5 days of treatment (CB1 receptor antagonist 0.6 mg/kg oral in miglyol (then methylcellulose/polysorbate vehicle), vehicles 25.52 ± 0.30, p < 0.01) | Food consumption during the 5 days of treatment (sibutramine 3 mg/kg oral (after miglyol), mean amount of food consumed, vehicles 25.52 ± 0.30, p < 0.05)
1 | CS(=O)(=O)C(=C1CN(C(c2ccc(Cl)cc2)c2ccc(Cl)cc2)C1)c1cc(F)cc(F)c1 [CB1 receptor antagonist, 1-[bis(4-chlorophenyl)methyl]-3-[(3,5-difluorophenyl)-(methylsulfonyl)methylene]azetidine] | 24.00 ± 0.24 g | 
2 | CC(C)CC(N(C)C)C1(c2ccc(Cl)cc2)CCC1 (centres unmarked) [sibutramine, N-{1-[1-(4-chloro-phenyl)cyclobutyl]-3-methylbutyl}-N,N-dimethylamine] |  | 24.60 ± 0.32 g

From patent US20080058381A1, “COMBINATION OF A CB1 RECEPTOR ANTAGONIST AND OF SIBUTRAMINE, THE PHARMACEUTICAL COMPOSITIONS COMPRISING THEM AND THEIR USE IN THE TREATMENT OF OBESITY” (priority 2000, published 2008)
